Assays:
Galectin-1 = Galectin-1 (Homo sapiens, UniProt P09382); settings: T. Delaine 2016; read-out: affinity to Galectin-1; cited from earlier work
Gal-1 = Gal-1 (Homo sapiens, UniProt P09382); test: Fluorescence anisotropy assay, compound as inhibitor of galectin / fluorescein tagged saccharide probe interaction; type: binding
Method: (§1) The affinity of Example 1-29 for galectins were determined by a fluorescence anisotropy assay where the compound was used as an inhibitor of the interaction between galectin and a fluorescein tagged saccharide probe as described Sörme, P., Kahl-Knutsson, B., Huflejt, M., Nilsson, U. J., and Leffler H. (2004) Fluorescence polarization as an analytical tool to evaluate galectin-ligand interactions. Anal. Biochem. 334: 36-47, (Sörme et al., 2004) and Monovalent interactions of Galectin-1 By Salomonsson, Emma; Larumbe, Amaia; Tejler, Johan; Tullberg, Erik; Rydberg, Hanna; Sundin, Anders; Khabut, Areej; Frejd, Torbjorn; Lobsanov, Yuri D.; Rini, James M.; et al, From Biochemistry (2010), 49(44), 9518-9532, (Salomonsson et al., 2010).

Gal-3 = Gal-3 (Homo sapiens, UniProt P17931); test: as above; type: binding
Chain of Gal-3 (P17931 whole entry): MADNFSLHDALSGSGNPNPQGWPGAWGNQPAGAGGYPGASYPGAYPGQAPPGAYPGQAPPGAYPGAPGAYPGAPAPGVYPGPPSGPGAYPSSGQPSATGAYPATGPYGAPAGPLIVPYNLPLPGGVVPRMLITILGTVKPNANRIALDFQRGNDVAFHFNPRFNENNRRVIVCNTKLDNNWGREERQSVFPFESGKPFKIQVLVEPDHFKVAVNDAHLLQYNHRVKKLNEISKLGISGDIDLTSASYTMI
Method: as §1

galectins = settings: cited from earlier work

Chain of Gal-1 (P09382 whole entry): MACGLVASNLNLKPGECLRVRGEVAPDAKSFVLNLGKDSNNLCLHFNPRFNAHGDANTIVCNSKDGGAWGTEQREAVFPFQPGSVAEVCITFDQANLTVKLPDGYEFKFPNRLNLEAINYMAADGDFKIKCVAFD
Chain of Galectin-1 (P09382 whole entry, species assumed): as the sequence (P09382 whole entry) above

Row | SMILES | Kd (Galectin-1) | Kd (Gal-1) | Kd (Gal-3) | affinity relative to lactose, times lower (galectins; compared with lactose) | Kd (galectins; Leffler 2001, Leffler et al. 2004, read-out: Kd, all galectins)
1 | OCC1O[C@@H](SC2O[C@H](CO)C(O)C(n3cc(-c4ccsc4)nn3)[C@H]2O)C(O)C(n2cc(-c3ccsc3)nn2)[C@H]1O (stereo partly shown) | < 0.01 µM | – | – | – | –
2 | Cc1nc2ccc(-n3cnnc3[C@@H]3O[C@H](CO)[C@H](O)[C@H](n4cc(-c5nc(Cl)cs5)nn4)[C@H]3O)cc2s1 [Example 1, 6-{3-{3-[4-(4-Chlorothiazol-2-yl)-1H-1,2,3-triazol-1-yl]-3-deoxy-β-D-galactopyranosyl}-4H-1,2,4-triazol-4-yl}-2-methylbenzothiazole] | – | 0.75 µM | 0.15 µM | – | –
3 | Cc1nc2ccc(-n3cnnc3[C@@H]3O[C@H](CO)[C@H](O)[C@H](n4cc(-c5csc(N)n5)nn4)[C@H]3O)cc2s1 [Example 6, 6-{3-{3-[4-(2-Aminothiazol-4-yl)-1H-1,2,3-triazol-1-yl]-3-deoxy-β-D-galactopyranosyl}-4H-1,2,4-triazol-4-yl}-2-methylbenzothiazole] | – | 1.6 µM | 1.9 µM | – | –
4 | Cc1nc2ccc(-n3cnnc3[C@@H]3O[C@H](CO)[C@H](O)[C@H](n4cc(-c5csc(O)n5)nn4)[C@H]3O)cc2s1 [Example 8, 6-{3-{3-Deoxy-3-[4-(2-hydroxythiazol-4-yl)-1H-1,2,3-triazol-1-yl]-β-D-galactopyranosyl}-4H-1,2,4-triazol-4-yl}-2-methylbenzothiazole] | – | 0.32 µM | 1.9 µM | – | –
5 | Cc1nnc([C@@H]2O[C@H](CO)[C@H](O)[C@H](n3cc(-c4nc(Cl)cs4)nn3)[C@H]2O)n1-c1cc(Cl)ccc1C(F)(F)F [Example 9, 1-{3-{3-[4-(4-Chlorothiazol-2-yl)-1H-1,2,3-triazol-1-yl]-3-deoxy-β-D-galactopyranosyl}-5-methyl-4H-1,2,4-triazol-4-yl}-5-chloro-2-(trifluoromethyl)benzene] | – | 0.29 µM | 0.041 µM | – | –
6 | Cc1nc([C@@H]2O[C@H](CO)[C@H](O)[C@H](n3cc(-c4nccs4)nn3)[C@H]2O)n(-c2ccc3nc(C)sc3c2)n1 [Example 10, 6-{5-{3-Deoxy-3-[4-(2-thiazolyl)-1H-1,2,3-triazol-1-yl]β-D-galactopyranosyl}-3-methyl-1H-1,2,4-triazol-1-yl}-2-methylbenzothiazole] | – | 5.2 µM | 2.3 µM | – | –
7 | Cc1csc(-c2cn([C@H]3[C@@H](O)[C@@H](CO)O[C@@H](c4nnc(C)n4-c4cc(Cl)ccc4C(F)(F)F)[C@@H]3O)nn2)n1 [Example 11, 5-Chloro-1-{3-{3-deoxy-3-[4-(4-methylthiazol-2-yl)-1H-1,2,3-triazol-1-yl]-β-D-galactopyranosyl}-5-methyl-4H-1,2,4-triazol-4-yl}-2-(trifluoromethyl)benzene] | – | 2.1 µM | 0.7 µM | – | –
8 | Cc1nnc([C@@H]2O[C@H](CO)[C@H](O)[C@H](n3cc(-c4csc(O)n4)nn3)[C@H]2O)n1-c1cc(Cl)ccc1C(F)(F)F [Example 12, 5-Chloro-1-{3-{3-deoxy-3-[4-(2-hydroxythiazol-4-yl)-1H-1,2,3-triazol-1-yl]β-D-galactopyranosyl}-5-methyl-4H-1,2,4-triazol-4-yl}-2-(trifluoromethyl)benzene] | – | 0.19 µM | 0.52 µM | – | –
9 | Cc1nc([C@@H]2O[C@H](CO)[C@H](O)[C@H](n3cc(-c4csc(C)n4)nn3)[C@H]2O)n(-c2ccc3nc(C)sc3c2)n1 [Example 13, 6-{5-{3-Deoxy-3-[4-(2-methylthiazol-4-yl)-1H-1,2,3-triazol-1-yl]β-D-galactopyranosyl}-3-methyl-1H-1,2,4-triazol-1-yl}-2-methylbenzothiazole] | – | 9 µM | 1.8 µM | – | –
10 | Cc1nc([C@@H]2O[C@H](CO)[C@H](O)[C@H](n3cc(-c4cncs4)nn3)[C@H]2O)n(-c2ccc3nc(C)sc3c2)n1 [Example 14, 6-{5-{3-Deoxy-3-[4-(5-thiazolyl)-1H-1,2,3-triazol-1-yl]β-D-galactopyranosyl}-3-methyl-1H-1,2,4-triazol-1-yl}-2-methylbenzothiazole] | – | 19.5 µM | 2.3 µM | – | –
11 | Cc1nc([C@@H]2OC(CO)[C@H](O)C(n3cc(-c4csc(N)n4)nn3)C2O)n(-c2cc(Cl)ccc2C(F)(F)F)n1 (stereo partly shown) [Example 15] | – | 1.5 µM | 1.3 µM | – | –
12 | Cc1nc([C@@H]2OC(CO)[C@H](O)C(n3cc(-c4nc(Cl)cs4)nn3)C2O)n(-c2cc(Cl)ccc2C(F)(F)F)n1 (stereo partly shown) [Example 16] | – | 0.9 µM | 0.039 µM | – | –
13 | CO[C@@H]1[C@@H](n2cc(-c3nc(Cl)cs3)nn2)[C@@H](O)[C@@H](CO)O[C@H]1c1nnc(C)n1-c1cc(Cl)ccc1C(F)(F)F [Example 17, 1-{3-{3-[4-(4-Chlorothiazol-2-yl)-1H-1,2,3-triazol-1-yl]-3-deoxy-2-O-methyl-β-D-galactopyranosyl}-5-methyl-4H-1,2,4-triazol-4-yl}-5-chloro-2-(trifluoromethyl)benzene] | – | 0.52 µM | 0.026 µM | – | –
14 | Cc1nc([C@@H]2O[C@H](CO)[C@H](O)[C@H](n3cc(-c4nc(Cl)cs4)nn3)[C@H]2O)n(-c2cc(Cl)cnc2C2CC2)n1 [Example 18, 3-{5-{3-[4-(4-Chlorothiazol-2-yl)-1H-1,2,3-triazol-1-yl]-3-deoxy-β-D-galactopyranosyl}-3-methyl-1H-1,2,4-triazol-1-yl}-5-chloro-2-cyclopropylpyridine] | – | 0.66 µM | 0.13 µM | – | –
15 | Cc1nnc([C@@H]2O[C@H](CO)[C@H](O)[C@H](n3cc(-c4csc(N)n4)nn3)[C@H]2O)n1-c1cc(Cl)ccc1C(F)(F)F [Example 19, 1-{3-{3-[4-(2-Aminothiazol-4-yl)-1H-1,2,3-triazol-1-yl]-3-deoxy-β-D-galactopyranosyl}-5-methyl-4H-1,2,4-triazol-4-yl}-5-chloro-2-(trifluoromethyl)benzene] | – | 0.73 µM | 0.82 µM | – | –
16 | Cc1nnc([C@@H]2O[C@H](CO)[C@H](O)[C@H](n3cc(-c4nccs4)nn3)[C@H]2O)n1-c1cc(Cl)ccc1C(F)(F)F [Example 20, 5-Chloro-1-{3-{3-deoxy-3-[4-(2-thiazolyl)-1H-1,2,3-triazol-1-yl]β-D-galactopyranosyl}-5-methyl-4H-1,2,4-triazol-4-yl}-2-(trifluoromethyl)benzene] | – | 0.69 µM | 0.15 µM | – | –
17 | Cc1nc2ccc(-n3cnnc3[C@@H]3O[C@H](CO)[C@H](O)[C@H](n4cc(-c5nccs5)nn4)[C@H]3O)cc2s1 [Example 21, 6-{3-{3-Deoxy-3-[4-(2-thiazolyl)-1H-1,2,3-triazol-1-yl]-β-D-galactopyranosyl}-4H-1,2,4-triazol-4-yl}-2-methylbenzothiazole] | – | 3 µM | 1.2 µM | – | –
18 | Cc1csc(-c2cn([C@H]3[C@@H](O)[C@@H](CO)O[C@@H](c4nncn4-c4ccc5nc(C)sc5c4)[C@@H]3O)nn2)n1 [Example 22, 6-{3-{3-Deoxy-3-[4-(4-methylthiazol-2-yl)-1H-1,2,3-triazol-1-yl]-β-D-galactopyranosyl}-4H-1,2,4-triazol-4-yl}-2-methylbenzothiazole] | – | 2.4 µM | 1.8 µM | – | –
19 | Cc1nc([C@@H]2O[C@H](CO)[C@H](O)[C@H](n3cc(-c4nc(Cl)cs4)nn3)[C@H]2O)n(-c2ccc3nc(C)sc3c2)n1 [Example 23, 6-{5-{3-[4-(4-Chlorothiazol-2-yl)-1H-1,2,3-triazol-1-yl]-3-deoxy-β-D-galactopyranosyl}-3-methyl-1H-1,2,4-triazol-1-yl}-2-methylbenzothiazole] | – | 2.1 µM | 0.14 µM | – | –
20 | Cc1nc([C@@H]2O[C@H](CO)[C@H](O)[C@H](n3cc(-c4csc(N)n4)nn3)[C@H]2O)n(-c2ccc3nc(C)sc3c2)n1 [Example 24, 6-{5-{3-[4-(2-Aminothiazol-4-yl)-1H-1,2,3-triazol-1-yl]-3-deoxy-β-D-galactopyranosyl}-3-methyl-1H-1,2,4-triazol-1-yl}-2-methylbenzothiazole] | – | 3.2 µM | 2.6 µM | – | –
21 | CO[C@@H]1[C@@H](n2cc(-c3nc(Cl)cs3)nn2)[C@@H](O)[C@@H](CO)O[C@H]1c1nnc(C)n1-c1ccc2nc(C)sc2c1 [Example 25, 6-{3-{3-[4-(4-Chlorothiazol-2-yl)-1H-1,2,3-triazol-1-yl]-3-deoxy-2-O-methyl-β-D-galactopyranosyl}-5-methyl-4H-1,2,4-triazol-4-yl}-2-methylbenzothiazole] | – | 0.34 µM | 0.07 µM | – | –
22 | Cc1nc2ccc(-n3c(C)nnc3[C@@H]3O[C@H](CO)[C@H](O)[C@H](n4cc(-c5nc(Cl)cs5)nn4)[C@H]3O)cc2s1 [Example 26, 6-{3-{3-[4-(4-Chlorothiazol-2-yl)-1H-1,2,3-triazol-1-yl]-3-deoxy-β-D-galactopyranosyl}-5-methyl-4H-1,2,4-triazol-4-yl}-2-methylbenzothiazole] | – | 0.59 µM | 0.065 µM | – | –
23 | Cc1nnc([C@@H]2OC(CO)[C@H](O)C(n3cc(-c4nc(Cl)cs4)nn3)C2O)n1-c1ccc2ncn(C)c2c1 (stereo partly drawn) [Example 27, 5-{3-{3-[4-(4-Chlorothiazol-2-yl)-1H-1,2,3-triazol-1-yl]-3-deoxy-β-D-galactopyranosyl}-5-methyl-4H-1,2,4-triazol-4-yl}-N-3-methylbenzimidazole] | – | 2.6 µM | 0.036 µM | – | –
24 | Cc1nc2ccc(-n3nccc3[C@@H]3OC(CO)[C@H](O)C(n4cc(-c5nc(Cl)cs5)nn4)C3O)cc2s1 (stereo partly shown) [Example 29] | – | 0.033 µM | 0.6 µM | – | –
25 | O=C[C@H](O)[C@@H](O)[C@@H](O)[C@H](O)CO [Galactose, D-galactose] | – | – | – | 50-100 times lower | –
26 | OC[C@H]1O[C@@H](O[C@H]2[C@H](O)[C@@H](O)C(O)O[C@@H]2CO)[C@H](O)[C@@H](O)[C@H]1O (stereo partly shown) [lactose] | – | – | – | – | 100 to 1000 µM

— patent US12441755B2, “Galactoside inhibitor of galectins” (GALECTO BIOTECH AB, priority 2019, dated 2025)
